Data published in the NIST ThermoML archive (doi:10.1021/je060210c).
± gives the expanded uncertainty stated by the source.

Conditions: 101.33 kPa, Liquid; for speed of sound: Sing-around technique in a fixed-path interferometer

mass density (283.15 K) [kg/m3]	speed of sound (283.15 K) [m/s]	mass density (298.15 K) [kg/m3]	speed of sound (298.15 K) [m/s]	mass density (313.15 K) [kg/m3]	speed of sound (313.15 K) [m/s]	Compound
821.79 ± 0.92	1325.9 ± 1.3	810.83 ± 0.95	1274.1 ± 1.2	799.8 ± 0.98	1225.5 ± 1.2	CCCCCO [pentan-1-ol]
879.07 ± 0.77	1354.3 ± 1.3	867.11 ± 0.8	1295.6 ± 1.3	854.87 ± 0.83	1236.3 ± 1.2	C=C1CCC2CC1C2(C)C (stereo not drawn) [β-pinene]
816.77 ± 1.9	1286.7 ± 2.1	804.97 ± 1.9	1232.6 ± 2.1	792.42 ± 2	1168.1 ± 2.1	CCCC(C)O (stereo not drawn) [pentan-2-ol]
